Experimental data from patent US20230011571A1, “SMALL MOLECULE FURIN INHIBITORS FOR TREATING INFECTIOUS DISEASES” (BP Asset V, Inc., priority 2019, published 2023).

What was measured:
Assay type in all cases: cell-based
[1] = test system: Chikungunya virus (CHIKV); test: microbe, parasite or virus in culture; details: Chikungunya virus, Vero, 48 h, read-out: Percent viral inhibition CHKV
dengue virus (DENV) = test: microbe, parasite or virus in culture; details: Dengue virus, Vero, 120 h, read-out: Percent viral inhibition DENY
Marburg virus (MARV) = test: organism not typed; details: Vero, 72 h, read-out: Percent viral inhibition MARV

| Structure (SMILES) | inhibition at 1 µM [1] [%] | inhibition at 1 µM (dengue virus (DENV)) [%] | inhibition at 1 µM (Marburg virus (MARV)) [%] |
| --- | --- | --- | --- |
| CC(=O)NCC1CCN(Cc2cc(-c3cc(Cl)cc(Cl)c3)nc(Oc3ccc(N4CCNCC4)nc3)n2)CC1 [Example 90, N-((1-((6-(3,5-dichlorophenyl)-2-((6-(piperazin-1-yl)pyridin-3-yl)oxy)pyrimidin-4-yl)methyl)piperidin-4-yl)methyl)acetamide] | 44.2 | 54.9 | 75.5 |
| CNC(=O)NCC1CCN(Cc2cc(Oc3cnc(N4CCN(CCCS(C)(=O)=O)CC4)nc3)nc(-c3cc(Cl)cc(Cl)c3)c2)CC1 [Example 257, 1-((1-((2-(3,5-dichlorophenyl)-6-((2-(4-(3-(methylsulfonyl)propyl)piperazin-1-yl)pyrimidin-5-yl)oxy)pyridin-4-yl)methyl)piperidin-4-yl)methyl)-3-methylurea] | 10.3 | 46.5 | 26.5 |
| CC(=O)NCC1CCN(Cc2cc(Oc3cnc(N4CCN(C(C)CCC(=O)O)CC4)nc3)nc(-c3cc(Cl)cc(Cl)c3)c2)CC1 (stereo not drawn) [Example 215, 4-(4-(5-((4-((4-(acetamidomethyl)piperidin-1-yl)methyl)-6-(3,5-dichlorophenyl)pyridin-2-yl)oxy)pyrimidin-2-yl)piperazin-1-yl)pentanoic acid] | 32.5 | 24.4 | 56.7 |
| CN1CCN(c2ncc(Oc3cc(CN4CCC(NC(=O)NS(C)(=O)=O)CC4)cc(-c4cc(Cl)cc(Cl)c4)n3)cn2)CC1 [Example 328, N-((1-((2-(3,5-dichlorophenyl)-6-((2-(4-methylpiperazin-1-yl)pyrimidin-5-yl)oxy)pyridin-4-yl)methyl)piperidin-4-yl)carbamoyl)methanesulfonamide] | 37.5 | 55.8 | 49.5 |
| NS(=O)(=O)CCC1CCN(Cc2cc(Oc3ccc(N4CCN(CCC(=O)O)CC4)nc3)nc(-c3cc(Cl)cc(Cl)c3)c2)CC1 [Example 277, 3-(4-(5-((6-(3,5-dichlorophenyl)-4-((4-(2-sulfamoylethyl)piperidin-1-yl)methyl)pyridin-2-yl)oxy)pyridin-2-yl)piperazin-1-yl)propanoic acid] | 11.7 | 21.7 | 61.8 |
| O=C(O)CC1CCN(Cc2cc(Oc3ccc(N4CCNCC4)nc3)nc(-c3cc(Cl)cc(Cl)c3)c2)CC1 [Example 4, 2-(1-((2-(3,5-dichlorophenyl)-6-((6-(piperazin-1-yl)pyridin-3-yl)oxy)pyridin-4-yl)methyl)piperidin-4-yl) acetic acid] | 18.4 | 16.6 | 70.8 |
| CN1CCCN(c2ncc(Oc3cc(CN4CC[C@@H]5[C@H](CC4)[C@H]5C(=O)O)cc(-c4cc(Cl)cc(Cl)c4)n3)cn2)CC1 [Example 397, (1R,7S,8r)-4-((2-(3,5-dichlorophenyl)-6-((2-(4-methyl-1,4-diazepan-1-yl)pyrimidin-5-yl)oxy)pyridin-4-yl)methyl)-4-azabicyclo[5.1.0]octane-8-carboxylic acid] | 25.1 | 38.7 | 46.2 |
| CC(=O)NCC1CCN(Cc2cc(Oc3ccc(N4CCN(CCOC(N)=O)CC4)nc3)nc(-c3cc(Cl)cc(Cl)c3)c2)CC1 [Example 31, 2-(4-(5-((4-((4-(acetamidomethyl)piperidin-1-yl)methyl)-6-(3,5-dichlorophenyl)pyridin-2-yl)oxy)pyridin-2-yl)piperazin-1-yl)ethylcarbamate] | 18.7 | 38.9 | 61.4 |
| CN1CCN(c2ncc(Oc3cc(CN4CCC(CP(C)(C)=O)CC4)cc(-c4cc(Cl)cc(Cl)c4)n3)cn2)CC1 [Example 320, ((1-((2-(3,5-dichlorophenyl)-6-((2-(4-methylpiperazin-1-yl)pyrimidin-5-yl)oxy)pyridin-4-yl)methyl)piperidin-4-yl)methyl)dimethylphosphineoxide] | 17.5 | 15.3 | 52.5 |
| CN1CCN(c2cnc(Oc3cc(CN4CCC(CCO)CC4)cc(-c4cc(Cl)cc(Cl)c4)n3)cn2)CC1 [Example 350, 2-(1-((2-(3,5-dichlorophenyl)-6-((5-(4-methylpiperazin-1-yl)pyrazin-2-yl)oxy)pyridin-4-yl)methyl)piperidin-4-yl)ethanol] | 0 | 22.8 | 29.9 |
| CC(=O)NC(=O)NCC1CCN(Cc2cc(Oc3cnc(N4CCN(C)CC4)nc3)nc(-c3cc(Cl)cc(Cl)c3)c2)CC1 [Example 327, N-(((1-((2-(3,5-dichlorophenyl)-6-((2-(4-methylpiperazin-1-yl)pyrimidin-5-yl)oxy)pyridin-4-yl)methyl)piperidin-4-yl)methyl)carbamoyl)acetamide] | 0 | 0 | 63.8 |
| CC(=O)NCC1CCN(Cc2cc(Oc3cnc(N4CCN(CCC(C)C(=O)O)CC4)cn3)nc(-c3cc(Cl)cc(Cl)c3)c2)CC1 (stereo not drawn) [Example 396, 4-(4-(5-((4-((4-(acetamidomethyl)piperidin-1-yl)methyl)-6-(3,5-dichlorophenyl)pyridin-2-yl)oxy)pyrazin-2-yl)piperazin-1-yl)-2-methylbutanoic acid] | 21.5 | 46.3 | 26.7 |
| CN1CCN(c2ncc(Oc3cc(CN4CC5CC(CC(=O)O)CC5C4)cc(-c4cc(Cl)cc(Cl)c4)n3)cn2)CC1 (stereo not drawn) [Example 129, 2-(2-((2-(3,5-dichlorophenyl)-6-((2-(4-methylpiperazin-1-yl)pyrimidin-5-yl)oxy)pyridin-4-yl)methyl)octahydrocyclopenta[c]pyrrol-5-yl)acetic acid] | 23.6 | 38.5 | 29.8 |
| CN1CCCN(c2ccc(Oc3cc(CN4CCC(CC(=O)O)CC4)cc(-c4cc(Cl)cc(Cl)c4)n3)cn2)CC1 [Example 156, 2-(1-((2-(3,5-dichlorophenyl)-6-((6-(4-methyl-1,4-diazepan-1-yl)pyridin-3-yl)oxy)pyridin-4-yl)methyl)piperidin-4-yl)acetic acid] | 38.4 | 43.9 | 13.2 |
| CNC(=O)NCC1CCN(Cc2cc(Oc3cnc(N4CCN(CCCO)CC4)nc3)nc(-c3cc(Cl)cc(Cl)c3)c2)CC1 [Example 171, 1-((1-((2-(3,5-dichlorophenyl)-6-((2-(4-(3-hydroxypropyl)piperazin-1-yl)pyrimidin-5-yl)oxy)pyridin-4-yl)methyl)piperidin-4-yl)methyl)-3-methylurea] | 0 | 41.7 | 0 |
| CN1C2CC1CN(c1cnc(Oc3cc(CN4CCC(CC(=O)O)CC4)cc(-c4cc(Cl)cc(Cl)c4)n3)cn1)C2 [Example 352, 2-(1-((2-(3,5-dichlorophenyl)-6-((5-(6-methyl-3,6-diazabicyclo[3.1.l]heptan-3-yl)pyrazin-2-yl)oxy)pyridin-4-yl)methyl)piperidin-4-yl)acetic acid] | 31 | 13.1 | 47.9 |
| CC(=O)NCC1CCN(Cc2cc(Oc3ccc(N4CC[N+](C)(C)CC4)nc3)nc(-c3cc(Cl)cc(Cl)c3)c2)CC1 [Example 181, 4-(5-((4-((4-(acetamidomethyl)piperidin-1-yl)methyl)-6-(3,5-dichlorophenyl)pyridin-2-yl)oxy)pyridin-2-yl)-1,1-dimethylpiperazin-1-ium] | 11.7 | 49.1 | 12.5 |
